The conditions of data set [1]: in vivo; cited from earlier work.
In the next data set the test system is T98 cells. The data set is described as follows: IC50 TMZ sensitivity (50% growth inhibition, cell counts). It counts as cell-based, human. Particulars: TMZ alone. The procedure: (§1) Culture Collection (ATCC; Manassas, VA, USA) (U-138—ATCC (CRL-HTB-16) glioblastoma; LN-18—ATCC (CRL-2610) glioblastoma; LN-229—ATCC (CRL-2611) glioblastoma; and T-98G—ATCC—(CRL-1690). U-251 GBM cells were obtained from Sigma-Aldrich (N#09063001 also known before as U-373 MG (ATCC® HTB-17)). G55 cells were obtained from Dr. Michael Sughrue, who was a resident at Univ. of California San Francisco (originally obtained from C. David James (Department of Neurological Surgery, UCSF, CA, USA), who characterized the cells).
(§2) Cells were cultured in Dulbecco's modified Eagle's medium (DMEM, Gibco BRL, Crand Island, N.Y., USA) supplemented with 10% fetal bovine serum (Gibco) in a standard humidified incubator at 37° C. under 5% CO2.
(§3) IC50 concentrations—Protocol for TMZ sensitivity determination. […] Briefly, cells were plated at 1×10^4 cells per well in 24-well, flat-bottomed plates and incubated with medium for 24 hrs. The cells were subsequently washed twice with medium and incubated further with fresh medium (control) or medium containing 0.1-1,000 μM of TMZ. Per each plate contained growth medium with +/−TMZ there was a plate with medium containing 1 mM OKN. After exposure to the various concentrations of TMZ for 72 hrs, cells were detached by trypsinization and the numbers counted. The experiments were repeated at least 4 times at each concentration.

A further data set concerns LN229 cells. The description is as above. It counts as cell-based, human. Particulars: TMZ alone. The procedure: as §1, §2, §3
For data set [2], the system named is MPG. Description: RT-PCR gene-fold changes in human GBM cells. It counts as cell-based. The procedure:
(§4) Quantification of mRNA by real-time quantitative RT-PCR for HIF-1a, MPG and MGMT. Total RNA from all cell lines with all treatments was purified with an RNeasy Mini Kit (Qiagen), and quantified by spectrophotometry (Nanodrop). cDNA was synthesized using SuperScript IV Reverse Transcriptase Kit (Invitrogen).
(§5) Target gene mRNA was amplified and measured by Bio-Rad CFX96™ Real Time System. Gene expression was determined using the SYBR Select Master Mix (Applied Biosystems). […] The reaction is characterized by the point during cycling when amplification of PCR products is first detected, rather than the amount of PCR product accumulated after a fixed number of cycles. The higher the starting quantity of the template, the earlier a significant increase in fluorescence is observed. The threshold cycle is defined as the fractional cycle number at which fluorescence passes a fixed threshold above the baseline. Fluorescence data were converted into cycle threshold measurements exported to Microsoft Excel. Glyceraldehyde-3-phosphatase dehydrogenase (GAPDH) mRNA expression levels were used as the quantitative internal control. For precise quantification, the mRNA expression level of each sample was normalized using the expression of the GAPDH gene.
(§6) All primers were synthesized by Integrated DNA Technologies. The primers used were: […]
(§7) were used to amplify 603-bp transcripts of MPG [9].

The subject of data set [3] is MGMT. Description: RT-PCR gene-fold changes in human GBM cells. It counts as cell-based. The procedure:
as §4, §5, §6, §7

In a further data set the test system is U251 cells. Description: IC50 TMZ sensitivity (50% growth inhibition, cell counts). It counts as cell-based. Particulars: Homo sapiens, U-251, TMZ alone, 72 hrs. The procedure:
as §1, §2, §3

Another data set relates to LN18 cells. Described as above. It counts as cell-based. The conditions noted are these: Homo sapiens, LN-18, TMZ alone, 72 hrs. The procedure:
as §1, §2, §3

The next data set concerns U138 cells. The description is as above. Type of data set: cell-based. Particulars: Homo sapiens, TMZ alone, 72 hrs. The procedure:
as §1, §2, §3

A further data set has as its system G55 cells. Described as above. The conditions noted are these: Homo sapiens, 72 h, TMZ alone. Type of data set: cell-based. The procedure:
as §1, §2, §3

In data set [4] the test system is MPG. Description: ELISA protein level in human GBM cell lysates. It counts as cell-based. The procedure: (§8) ELISA for HIF-1a, MPG and MGMT. Protein expressions were assessed in all six glioma cell lines for all four groups of treatment (cell alone, cells with TMZ, cells with OKN, cells with combined OKN and TMZ). Cells were lysed before assaying. In brief, cells were washed by cold PBS gently, and then detached with trypsin, and collected by centrifugation at 1,000×g for 5 minutes. Then, cells were washed three times in cold PBS, then suspended in fresh lysis buffer. Lysates were centrifuged at 1,500×g for 10 minutes at 2-8° C. to remove cellular debris.
(§9) The assay is based on the sandwich ELISA principle. Each well of the supplied microtiter plate has been pre-coated with a target specific capture antibody. Standards or samples are added to the wells and the target antigen binds to the capture antibody. Unbound Standard or sample is washed away. A biotin-conjugated detection antibody is then added which binds to the captured antigen. Unbound detection antibody is washed away. An Avidin-Horseradish Peroxidase (HRP) conjugate is then added which binds to the biotin. Unbound Avidin-HRP conjugate is washed away. A TMB substrate is then added which reacts with the HRP enzyme resulting in color development. A sulfuric acid stop solution is added to terminate color development reaction and then the optical density (OD) of the well is measured at a wavelength of 450 nm±2 nm. The OD of an unknown sample can then be compared to an OD standard curve generated using known antigen concentrations in order to determine its antigen concentration.
(§10) The antigen concentration determined from ELISA was then normalized to the total protein concentration of each cell lysate in order to have comparison between groups. ELISA Kits for N-Methylpurine DNA Glycosylase (MPG) and for Hypoxia Inducible Factor 1 Alpha (HIF1a) were purchased from CLOUD-CLONE CORP.(CCC) and for Human MGMT from LifeSpan Biosciences, Inc.
A general note: ELISA stands for enzyme-linked immunosorbent assay.

The subject of data set [5] is MGMT. The data set is described as follows: ELISA protein level in human GBM cell lysates. Type of data set: cell-based. The procedure:
as §8, §9, §10

Data set [6] has as its system HIF-1α. Description: ELISA protein level in human GBM cell lysates. It counts as cell-based. The procedure:
as §8, §9, §10

In data set [7] the test system is HIF-1α. The data set is described as follows: RT-PCR gene-fold changes in human GBM cells. It counts as cell-based. The procedure: as §4, §5, §6
The conditions of data set [8]: patients; cited from earlier work.
The conditions of data set [9]: rats; cited from earlier work.
A further data set relates to C6 gliomas. The conditions noted are these: rat C6 glioma, cited from earlier work.
Where [10] appears, read: T98 cells (TMZ-resistant), UT 1.00.
[11] abbreviates: U251 cells (TMZ-sensitive), UT 1.00.

pIC50: −log10 of the molar value. Where a name gives a salt, the structure may show the parent alone.

With `O=NN(CCCl)C(=O)NC1CCCCC1` [Lomustine, 1-(2-chloroethyl)-3-cyclohexyl-1-nitrosourea], in data set [1], the “crossing of the blood brain barrier” value is “crosses the blood brain barrier”.
As to `CC[C@]1(O)C[C@H]2CN(CCc3c([nH]c4ccccc34)[C@@](C(=O)OC)(c3cc4c(cc3OC)N(C=O)[C@H]3[C@@](O)(C(=O)OC)[C@H](OC(C)=O)[C@]5(CC)C=CCN6CC[C@]43[C@@H]65)C2)C1` [Vincristine, vincaleukoblastine, a 22-oxo-, sulfate (1:1) (salt)], the “crossing of the blood brain barrier” value in data set [1] was “does not appear to cross the blood brain barrier”.
For `Cn1nnc2c(C(N)=O)ncn2c1=O` [TMZ, Temozolomide, reference compound], the pIC50 in the data set with T98 cells (Homo sapiens, T98, 72 h) was 3.36; in the data set on T98 cells (72 hrs), 3.35; with LN229 cells (Homo sapiens, LN-229, 72 h) it was 3.97; in the data set with LN229 cells (72 hrs), approximately 4.00; with U251 cells, 3.75; with LN18 cells, 3.11. Also, the pIC50 with U138 cells is 3.35; in the data set on G55 cells (G55 (high) passage), 4.03; in the data set on G55 cells (G55 (low) passage), 3.25. Besides, the “RT-PCR gene-fold change MPG” value in the data set on MPG [2] (G55 cells (TMZ-resistant), UT 1.06) is 2.53 fold; in the data set with MPG [2] (LN18 cells (TMZ-resistant), UT 1.00) it was 2.95 fold; with MPG [2] (LN229 cells (TMZ-sensitive), UT 1.10) it was 1.22 fold; in the data set with MPG [2] (T98 cells (TMZ-resistant), UT 1.10), 1.22 fold; with MPG [2] (U138 cells (TMZ-resistant), UT 1.13), 7.14 fold; in the data set with MPG [2] (U251 cells (TMZ-sensitive), UT 1.10), 1.11 fold. For the same compound, the “RT-PCR gene-fold change MGMT” value in the data set on MGMT [3] (LN18 cells (TMZ-resistant), UT 1.06) was found to be 0.77 fold; in the data set with MGMT [3] (setting [10]), 1.07 fold; in the data set with MGMT [3] (setting [11]) it was 1.32 fold. The “ELISA protein level MPG” value in the data set with MPG [4] (G55 cells, UT 1.15) is 1.50 ng/mg cell lysate; in the data set on MPG [4] (LN18 cells, UT 2.18), 2.27 ng/mg cell lysate; with MPG [4] (LN229 cells, UT 2.34), 1.93 ng/mg cell lysate; with MPG [4] (T98 cells, UT 3.04), 3.82 ng/mg cell lysate; in the data set with MPG [4] (U138 cells, UT 1.30), 1.50 ng/mg cell lysate; in the data set on MPG [4] (U251 cells, UT 2.70) it was 4.99 ng/mg cell lysate. Moreover, the “ELISA protein level MGMT” value in the data set with MGMT [5] (G55 cells, UT 0.37) is recorded as 1.19 ng/mg cell lysate; with MGMT [5] (LN18 cells, UT 1.23), 1.28 ng/mg cell lysate; in the data set on MGMT [5] (LN229 cells, UT 0.67), 0.75 ng/mg cell lysate; in the data set with MGMT [5] (T98 cells, UT 0.62) it was 1.76 ng/mg cell lysate; in the data set on MGMT [5] (U138 cells, UT 0.77), 0.98 ng/mg cell lysate; in the data set on MGMT [5] (U251 cells, UT 0.92) it was 1.48 ng/mg cell lysate. Also, the “ELISA protein level HIF-1α” value in the data set on HIF-1α [6] (G55 cells, UT 0.14) was 1.08 ng/mg cell lysate; in the data set with HIF-1α [6] (LN18 cells, UT 0 76), 0.83 ng/mg cell lysate; with HIF-1α [6] (LN229 cells, UT 0.68), 0.74 ng/mg cell lysate; with HIF-1α [6] (T98 cells, UT 0.42), 0.77 ng/mg cell lysate; in the data set with HIF-1α [6] (U138 cells, UT 0.40), 0.84 ng/mg cell lysate; in the data set on HIF-1α [6] (U251 cells, UT 0.30) it was 1.41 ng/mg cell lysate. The “RT-PCR gene-fold change HIF-1α” value in the data set with HIF-1α [7] (G55 cells (TMZ-resistant), UT 1.00) was found to be 1.85 fold; with HIF-1α [7] (LN18 cells (TMZ-resistant), UT 1.03) it was 2.11 fold; in the data set on HIF-1α [7] (LN229 cells (TMZ-sensitive), UT 1.00), 1.41 fold; with HIF-1α [7] (setting [10]), 1.72 fold; in the data set on HIF-1α [7] (U138 cells (TMZ-resistant), UT 1.00) it was 2.05 fold; in the data set with HIF-1α [7] (setting [11]) it was 1.48 fold. For the same compound, in data set [8], the “incidence of severe nausea and vomiting (each)” value was “around 4%”.
For the compound `CC(C)(C)[N+]([O-])=Cc1ccccc1` [PBN, phenyl N-tert-butyl nitrone], in data set [9], the half-life entry is “about 132 minutes”. For the same compound, the “tumors with reduced tumor growth” value in the data set on C6 gliomas (post-treatment) is listed as approximately 50%. Besides, in the data set on C6 gliomas (pre-treatment), the “tumors with reduced growth” value is reported as more than 80%. Besides, in [1], the “crossing of the blood brain barrier” value is listed as “easily penetrate the BBB”.

One may read the pIC50 as the negative decadic logarithm of the IC50, by convention in mol/L. A lower pIC50 goes with a high IC50.

The values above are taken from patent publication US11660280B2, “Treatment of drug resistant gliomas” (OKLAHOMA MEDICAL RESEARCH FOUNDATION, priority 2017, dated 2023).
